# Columns and labels:
# Assay type in all cases: functional
# [1] = system: NCI-H322M; assay: Growth inhibition of human NCI-H322M cells after 48 hrs by sulforhodamine B assay
# [2] = system: OVCAR-3; assay: Growth inhibition of human OVCAR3 cells after 48 hrs by sulforhodamine B assay; conditions: OVCAR-3, 48 h
# [3] = system: U-251; assay: Growth inhibition of human U251 cells after 48 hrs by sulforhodamine B assay; conditions: U-251, 48 h
# [4] = Growth inhibition of human HOP92 cells after 48 hrs by sulforhodamine B assay; conditions: HOP-92, 48 h
# [5] = Growth inhibition of human Hs 578T cells after 48 hrs by sulforhodamine B assay
# [6] = Growth inhibition of human OVCAR5 cells after 48 hrs by sulforhodamine B assay; conditions: OVCAR-5, 48 h
# [7] = system: A549; assay: Growth inhibition of human A549/ATCC cells after 48 hrs by sulforhodamine B assay; conditions: A549, 48 h
# [8] = system: Paracentrotus lividus; assay: Antimitotic activity in sea urchin fertilized egg assessed as cleavage alteration treated at 8 to 20 mins post-fertilization measured at 2.5 to 5.5 hrs post-fertilization
# [9] = system: SNB-75; assay: Growth inhibition of human SNB75 cells after 48 hrs by sulforhodamine B assay; conditions: SNB-75, 48 h
# [10] = Growth inhibition of human EKVX cells after 48 hrs by sulforhodamine B assay
# [11] = system: PC-3; assay: Growth inhibition of human PC3 cells after 48 hrs by sulforhodamine B assay; conditions: PC-3, 48 h
# [12] = system: DU-145; assay: Growth inhibition of human DU145 cells after 48 hrs by sulforhodamine B assay; conditions: DU-145, 48 h
# [13] = system: MDA-MB-231; assay: Growth inhibition of human MDA-MB-231 cells after 48 hrs by sulforhodamine B assay; conditions: MDA-MB-231, 48 h
# [14] = system: M14; assay: Growth inhibition of human M14 cells after 48 hrs by sulforhodamine B assay; conditions: M14, 48 h
# [15] = system: NCI-H460; assay: Growth inhibition of human NCI-H460 cells after 48 hrs by sulforhodamine B assay; conditions: NCI-H460, 48 h
# [16] = Growth inhibition of human UACC257 cells after 48 hrs by sulforhodamine B assay; conditions: UACC-257, 48 h
# [17] = system: MDA-MB-468; assay: Growth inhibition of human MDA-MB-468 cells after 48 hrs by sulforhodamine B assay; conditions: MDA-MB-468, 48 h
# [18] = Growth inhibition of human HCC2998 cells after 48 hrs by sulforhodamine B assay; conditions: HCC 2998, 48 h
# [19] = system: SK-OV-3; assay: Growth inhibition of human SKOV3 cells after 48 hrs by sulforhodamine B assay; conditions: SK-OV-3, 48 h
# [20] = system: TK-10; assay: Growth inhibition of human TK10 cells after 48 hrs by sulforhodamine B assay; conditions: TK-10, 48 h
# [21] = system: HCT-15; assay: Growth inhibition of human HCT15 cells after 48 hrs by sulforhodamine B assay; conditions: HCT-15, 48 h
# [22] = system: Paracentrotus lividus; assay: Antimitotic activity in sea urchin fertilized egg assessed as cleavage arrest treated at 8 to 20 mins post-fertilization measured at 2.5 to 5.5 hrs post-fertilization
# [23] = system: KM12; assay: Growth inhibition of human KM12 cells after 48 hrs by sulforhodamine B assay; conditions: KM12, 48 h
# [24] = system: Malme-3M; assay: Growth inhibition of human MALME-3M cells after 48 hrs by sulforhodamine B assay
# [25] = system: SR; assay: Growth inhibition of human SR cells after 48 hrs by sulforhodamine B assay
# [26] = system: SN12C; assay: Growth inhibition of human SN12C cells after 48 hrs by sulforhodamine B assay
# [27] = system: 786-0; assay: Growth inhibition of human 786-0 cells after 48 hrs by sulforhodamine B assay; conditions: 786-0, 48 h
# [28] = system: A498; assay: Growth inhibition of human A498 cells after 48 hrs by sulforhodamine B assay; conditions: A498, 48 h
# [29] = system: Paracentrotus lividus; assay: Microtubule destabilizing activity in sea urchin free-swimming blastula assessed as embryo spinning treated at 9 to 10 hrs post-fertilization measured after 0.15 to 15 hrs
# [30] = system: MCF7; assay: Growth inhibition of human MCF7 cells after 48 hrs by sulforhodamine B assay; conditions: MCF7, 48 h
# [31] = Growth inhibition of human NCI-ADR-RES cells after 48 hrs by sulforhodamine B assay
# [32] = system: HL-60(TB); assay: Growth inhibition of human HL-60(TB) cells after 48 hrs by sulforhodamine B assay; conditions: HL-60, 48 h
# [33] = system: SK-MEL-5; assay: Growth inhibition of human SK-MEL-5 cells after 48 hrs by sulforhodamine B assay; conditions: SK-MEL-5, 48 h
# [34] = system: MDA-MB-435; assay: Growth inhibition of human MDA-MB-435 cells after 48 hrs by sulforhodamine B assay; conditions: MDA-MB-435, 48 h
# [35] = Growth inhibition of human SF539 cells after 48 hrs by sulforhodamine B assay; conditions: SF-539, 48 h
# [36] = system: SF-268; assay: Growth inhibition of human SF268 cells after 48 hrs by sulforhodamine B assay; conditions: SF-268, 48 h
# [37] = system: SNB-19; assay: Growth inhibition of human SNB19 cells after 48 hrs by sulforhodamine B assay; conditions: SNB-19, 48 h
# [38] = system: BT-549; assay: Growth inhibition of human BT549 cells after 48 hrs by sulforhodamine B assay; conditions: BT-549, 48 h
# [39] = Growth inhibition of human OVCAR4 cells after 48 hrs by sulforhodamine B assay; conditions: OVCAR-4, 48 h
# [40] = system: MOLT-4; assay: Growth inhibition of human MOLT4 cells after 48 hrs by sulforhodamine B assay; conditions: MOLT-4, 48 h
# [41] = system: UACC-62; assay: Growth inhibition of human UACC62 cells after 48 hrs by sulforhodamine B assay; conditions: UACC-62, 48 h
# [42] = system: HOP-62; assay: Growth inhibition of human HOP62 cells after 48 hrs by sulforhodamine B assay; conditions: HOP-62, 48 h
# [43] = system: HCT-116; assay: Growth inhibition of human HCT116 cells after 48 hrs by sulforhodamine B assay; conditions: HCT-116, 48 h
# [44] = system: IGROV-1; assay: Growth inhibition of human IGROV1 cells after 48 hrs by sulforhodamine B assay; conditions: IGROV-1, 48 h
# [45] = Growth inhibition of human UO31 cells after 48 hrs by sulforhodamine B assay; conditions: UO-31, 48 h
# [46] = system: OVCAR-8; assay: Growth inhibition of human OVCAR8 cells after 48 hrs by sulforhodamine B assay; conditions: OVCAR-8, 48 h
# [47] = system: LOX IMVI; assay: Growth inhibition of human LOXIMVI cells after 48 hrs by sulforhodamine B assay
# [48] = system: NCI-H522; assay: Growth inhibition of human NCI-H522 cells after 48 hrs by sulforhodamine B assay; conditions: NCI-H522, 48 h
# [49] = system: NCI-H226; assay: Growth inhibition of human NCI-H226 cells after 48 hrs by sulforhodamine B assay; conditions: NCI-H226, 48 h
# [50] = system: NCI-H23; assay: Growth inhibition of human NCI-H23 cells after 48 hrs by sulforhodamine B assay; conditions: NCI-H23, 48 h
# [51] = system: SF-295; assay: Growth inhibition of human SF295 cells after 48 hrs by sulforhodamine B assay; conditions: SF-295, 48 h
# [52] = system: SW-620; assay: Growth inhibition of human SW620 cells after 48 hrs by sulforhodamine B assay; conditions: SW-620, 48 h
# [53] = system: COLO 205; assay: Growth inhibition of human COLO205 cells after 48 hrs by sulforhodamine B assay; conditions: COLO 205, 48 h
# [54] = system: ACHN; assay: Growth inhibition of human ACHN cells after 48 hrs by sulforhodamine B assay
# [55] = system: HT-29; assay: Growth inhibition of human HT-29 cells after 48 hrs by sulforhodamine B assay; conditions: HT-29, 48 h
# [56] = system: SK-MEL-2; assay: Growth inhibition of human SK-MEL-2 cells after 48 hrs by sulforhodamine B assay; conditions: SK-MEL-2, 48 h
# [57] = system: T47D; assay: Growth inhibition of human T47D cells after 48 hrs by sulforhodamine B assay
# [58] = Growth inhibition of human RXF393 cells after 48 hrs by sulforhodamine B assay; conditions: RXF 393, 48 h
# [59] = system: CAKI-1; assay: Growth inhibition of human CAKI-1 cells after 48 hrs by sulforhodamine B assay; conditions: CAKI-1, 48 h
# [60] = system: RPMI-8226; assay: Growth inhibition of human RPMI8226 cells after 48 hrs by sulforhodamine B assay; conditions: RPMI-8226, 48 h
# [61] = system: CCRF-CEM; assay: Growth inhibition of human CCRF-CEM cells after 48 hrs by sulforhodamine B assay
# [62] = system: SK-MEL-28; assay: Growth inhibition of human SK-MEL-28 cells after 48 hrs by sulforhodamine B assay; conditions: SK-MEL-28, 48 h
smiles,measurement,setting,value
COc1ccc(-c2c(-c3cc(OC)c(OC)c(OC)c3)noc2N)cc1,GI50,[1],56.7 nM
same,GI50,[2],< 10 nM
same,GI50,[3],< 10 nM
same,GI50,[4],< 10 nM
same,GI50,[5],< 10 nM
same,GI50,[6],46.6 nM
same,GI50,[7],< 10 nM
same,EC,[8],0.002 µM
same,GI50,[9],< 10 nM
same,GI50,[10],15200 nM
same,GI50,[11],< 10 nM
same,GI50,[12],13.5 nM
same,GI50,[13],31.9 nM
same,GI50,[14],< 10 nM
same,GI50,[15],< 10 nM
same,GI50,[16],< 10 nM
same,GI50,[17],< 10 nM
same,GI50,[18],15.1 nM
same,GI50,[19],< 10 nM
same,GI50,[20],10500 nM
same,GI50,[21],< 10 nM
same,EC,[22],0.005 µM
same,GI50,[23],< 10 nM
same,GI50,[24],13400 nM
same,GI50,[25],< 10 nM
same,GI50,[26],32.8 nM
same,GI50,[27],< 10 nM
same,GI50,[28],< 10 nM
same,EC,[29],0.5 µM
same,GI50,[30],< 10 nM
same,GI50,[31],< 10 nM
same,GI50,[32],< 10 nM
same,GI50,[33],< 10 nM
same,GI50,[34],< 10 nM
same,GI50,[35],< 10 nM
same,GI50,[36],< 10 nM
same,GI50,[37],25.1 nM
same,GI50,[38],19.3 nM
same,GI50,[39],14.5 nM
same,GI50,[40],27.4 nM
same,GI50,[41],< 10 nM
same,GI50,[42],14.4 nM
same,GI50,[43],< 10 nM
same,GI50,[44],10.6 nM
same,GI50,[45],< 10 nM
same,GI50,[46],13.9 nM
same,GI50,[47],< 10 nM
same,GI50,[48],< 10 nM
same,GI50,[49],24.4 nM
same,GI50,[50],14.9 nM
same,GI50,[51],< 10 nM
same,GI50,[52],< 10 nM
same,GI50,[53],< 10 nM
same,GI50,[54],< 10 nM
same,GI50,[55],< 10 nM
same,GI50,[56],18.8 nM
COc1ccc(-c2c(-c3cc(OC)c4c(c3)OCCO4)noc2N)cc1,GI50,[1],25400 nM
same,GI50,[2],< 10 nM
same,GI50,[3],14.8 nM
same,GI50,[4],446 nM
same,GI50,[5],< 10 nM
same,GI50,[6],50.5 nM
same,GI50,[7],10.1 nM
same,EC,[8],0.002 µM
same,GI50,[10],35.3 nM
same,GI50,[11],24.8 nM
same,GI50,[12],32 nM
same,GI50,[13],73.4 nM
same,GI50,[14],< 10 nM
same,GI50,[15],< 10 nM
same,GI50,[17],12.2 nM
same,GI50,[18],20.1 nM
same,GI50,[19],< 10 nM
same,GI50,[57],27.2 nM
same,GI50,[20],15.8 nM
same,GI50,[21],< 10 nM
same,EC,[22],0.01 µM
same,GI50,[23],< 10 nM
same,GI50,[24],23600 nM
same,GI50,[25],< 10 nM
same,GI50,[26],31.8 nM
same,GI50,[27],14.5 nM
same,GI50,[58],< 10 nM
same,GI50,[28],< 10 nM
same,EC,[29],0.1 µM
same,GI50,[30],< 10 nM
same,GI50,[31],< 10 nM
same,GI50,[32],10.4 nM
same,GI50,[33],< 10 nM
same,GI50,[34],< 10 nM
same,GI50,[35],13 nM
same,GI50,[36],30 nM
same,GI50,[37],26.9 nM
same,GI50,[38],28.5 nM
same,GI50,[39],78.7 nM
same,GI50,[40],39.8 nM
same,GI50,[41],< 10 nM
same,GI50,[42],< 10 nM
same,GI50,[43],< 10 nM
same,GI50,[44],13.6 nM
same,GI50,[45],57.8 nM
same,GI50,[46],21.5 nM
same,GI50,[47],11.2 nM
same,GI50,[59],< 10 nM
same,GI50,[48],< 10 nM
same,GI50,[49],27.7 nM
same,GI50,[50],1.95 nM
same,GI50,[51],< 10 nM
same,GI50,[52],< 10 nM
same,GI50,[60],33.8 nM
same,GI50,[61],15.5 nM
same,GI50,[53],< 10 nM
same,GI50,[54],12.2 nM
same,GI50,[55],< 10 nM
same,GI50,[62],17 nM
same,GI50,[56],< 10 nM

# From ChEMBL document CHEMBL3112491, “3-(5-)-Amino-o-diarylisoxazoles: regioselective synthesis and antitubulin activity” (2014)
